This note sets out measurements from ChEMBL document CHEMBL4706517, “Discovery of novel berberine derivatives with balanced cholinesterase and prolyl oligopeptidase inhibition profile” (Eur J Med Chem, 2020).

Each structure is given as a SMILES string. A value given as a limit tells only on which side of the number the result lay.

Sequence of Acetylcholinesterase (P22303 whole entry): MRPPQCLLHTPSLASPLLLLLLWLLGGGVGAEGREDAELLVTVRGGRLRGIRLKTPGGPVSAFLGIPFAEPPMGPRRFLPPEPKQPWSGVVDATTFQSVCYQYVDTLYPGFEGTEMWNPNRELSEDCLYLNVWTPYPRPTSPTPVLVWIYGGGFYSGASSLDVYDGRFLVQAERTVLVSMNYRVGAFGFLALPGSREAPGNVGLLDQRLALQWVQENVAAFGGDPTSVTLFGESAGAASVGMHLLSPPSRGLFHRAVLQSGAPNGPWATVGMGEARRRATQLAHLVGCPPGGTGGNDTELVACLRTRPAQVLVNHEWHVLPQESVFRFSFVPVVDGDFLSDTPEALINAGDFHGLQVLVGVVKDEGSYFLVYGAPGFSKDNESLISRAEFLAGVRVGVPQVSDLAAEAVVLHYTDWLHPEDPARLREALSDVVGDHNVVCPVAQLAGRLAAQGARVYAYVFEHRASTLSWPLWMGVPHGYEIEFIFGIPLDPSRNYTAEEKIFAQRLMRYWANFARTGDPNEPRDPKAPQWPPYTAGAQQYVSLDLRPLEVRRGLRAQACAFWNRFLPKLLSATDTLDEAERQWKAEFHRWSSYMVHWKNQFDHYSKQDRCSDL

The first series addresses Acetylcholinesterase (Homo sapiens, UniProt P22303). Description: Inhibition of recombinant human acetylcholinesterase using acetylthiocholine iodide as substrate preincubated with enzyme for 5 mins followed by substrate addition and measured at 2 mins interval by Ellman's method.
Conditions: not given
A general note: In Ellman's method for cholinesterases, released thiocholine reacts with DTNB.
For orientation: IC50 means the concentration that inhibits the measured activity by half. On to `COc1ccc2cc3[n+](cc2c1OCc1ccc(Cl)c(Cl)c1)CCc1cc2c(cc1-3)OCO2`, for which the IC50 was 1.22 µM.
On the same count and under the same terms, as for `COc1ccc(COc2c(OC)ccc3cc4[n+](cc23)CCc2cc3c(cc2-4)OCO3)cc1.[Br-]`, the figure is 5.3 µM; as for `COc1ccc2cc3[n+](cc2c1OCc1ccccc1C)CCc1cc2c(cc1-3)OCO2`, 10.4 µM; as for `COc1ccc2cc3[n+](cc2c1OCc1ccccc1)CCc1cc2c(cc1-3)OCO2.[Br-]`, 5 µM.
As to `COc1ccc2cc3[n+](cc2c1OCc1cc(C)cc(C)c1)CCc1cc2c(cc1-3)OCO2`, the IC50 came to 2.5 µM.
Still for that read-out and setting: next, `COc1ccc2cc3[n+](cc2c1OCc1ccc(Br)cc1)CCc1cc2c(cc1-3)OCO2.[Br-]`: 3.3 µM; `COc1cccc(COc2c(OC)ccc3cc4[n+](cc23)CCc2cc3c(cc2-4)OCO3)c1`: 3.5 µM; `COc1ccc2cc3[n+](cc2c1OCc1cccc(Cl)c1)CCc1cc2c(cc1-3)OCO2`: 1.9 µM.

A further series relates to CHO-K1. Description: Cytotoxicity against CHO-K1 cells assessed as reduction in cell viability measured after 24 hrs by MTT assay. Type of series: cell-based, Cricetulus griseus. The conditions noted are these: Cricetulus griseus, CHO-K1, 24 h; read-out: IC50. (In general: Tetrazolium assays rely on reduction of a dye to a coloured formazan, in cell work by metabolically active cells.)
As to `COc1ccc2cc3[n+](cc2c1OCc1ccc(Cl)c(Cl)c1)CCc1cc2c(cc1-3)OCO2`, the IC50 was 9 µM.
Still for that read-out and setting: next, `COc1ccc(COc2c(OC)ccc3cc4[n+](cc23)CCc2cc3c(cc2-4)OCO3)cc1.[Br-]`: 42 µM.
Same read-out and setting: as for `COc1ccc2cc3[n+](cc2c1OC)CCc1cc2c(cc1-3)OCO2.[Cl-]` [BERBERINE CHLORIDE], the figure is 336 µM; as for `COc1ccc2cc3[n+](cc2c1OCc1ccccc1C)CCc1cc2c(cc1-3)OCO2`, 55 µM.
Still for that read-out and setting: next, `COc1ccc2cc3[n+](cc2c1OCc1ccccc1)CCc1cc2c(cc1-3)OCO2.[Br-]`: 55 µM.
For the molecule `COc1ccc2cc3[n+](cc2c1OCc1cc(C)cc(C)c1)CCc1cc2c(cc1-3)OCO2`, the IC50 was determined as 23 µM.
On the same count and under the same terms, as for `COc1ccc2cc3[n+](cc2c1OCc1ccc(Br)cc1)CCc1cc2c(cc1-3)OCO2.[Br-]`, the figure is 48 µM.
Same read-out and setting: next, `COc1cccc(COc2c(OC)ccc3cc4[n+](cc23)CCc2cc3c(cc2-4)OCO3)c1`: 46 µM; `COc1ccc2cc3[n+](cc2c1OCc1cccc(Cl)c1)CCc1cc2c(cc1-3)OCO2`: 30 µM.

System in the next series: not listed separately
Kind of series: Antioxidant activity assessed as radical scavenging activity measured after 30 mins by microplate reader based DPPH assay. It counts as functional.
Conditions: not given
Background: Loss of DPPH colour is used to gauge radical scavenging.
The term EC50 denotes the concentration needed to bring the measured effect to its halfway point. In the case of `CC(=O)N[C@@H](CS)C(=O)O` [ACETYLCYSTEINE], the EC50 is 27.9 µM.
On the same count and under the same terms, next, `COc1ccc2cc3[n+](cc2c1OCc1ccc(Cl)c(Cl)c1)CCc1cc2c(cc1-3)OCO2`: greater than 6000 µM; `Cc1c(C)c2c(c(C)c1O)CCC(C)(C(=O)O)O2` (stereo not given) [TROLOX]: 16.2 µM; `COc1ccc(COc2c(OC)ccc3cc4[n+](cc23)CCc2cc3c(cc2-4)OCO3)cc1.[Br-]`: greater than 6000 µM.
On the same count and under the same terms, next, `COc1ccc2cc3[n+](cc2c1OC)CCc1cc2c(cc1-3)OCO2.[Cl-]` [BERBERINE CHLORIDE]: 5500 µM; `COc1ccc2cc3[n+](cc2c1OCc1ccccc1C)CCc1cc2c(cc1-3)OCO2`: 1200 µM.
Same read-out and setting: as for `COc1ccc2cc3[n+](cc2c1OCc1ccccc1)CCc1cc2c(cc1-3)OCO2.[Br-]`, the figure is 1900 µM; as for `COc1ccc2cc3[n+](cc2c1OCc1cc(C)cc(C)c1)CCc1cc2c(cc1-3)OCO2`, 990 µM; as for `COc1ccc2cc3[n+](cc2c1OCc1ccc(Br)cc1)CCc1cc2c(cc1-3)OCO2.[Br-]`, greater than 6000 µM.
Regarding `COc1cccc(COc2c(OC)ccc3cc4[n+](cc23)CCc2cc3c(cc2-4)OCO3)c1`, the EC50 stood at 5300 µM.
The same measure, in the same setting: next, `COc1ccc2cc3[n+](cc2c1OCc1cccc(Cl)c1)CCc1cc2c(cc1-3)OCO2`: 5400 µM.

System in a further series: not listed separately
Description: Inhibition of HFIP-pretreated Tau (306 to 336) (unknown origin) self-aggregation at 25 uM measured at interval of 10 mins for overnight with 1 min shaking by thioflavin-T fluorescence method. Particulars: Homo sapiens.
The inhibition is the drop in the measured response relative to a control, in per cent. Regarding `COc1ccc2cc3[n+](cc2c1OC)CCc1cc2c(cc1-3)OCO2.[Cl-]` [BERBERINE CHLORIDE], the inhibition is 25%.
The same measure, in the same setting: next, `C[C@H]1c2cccc(O)c2C(=O)C2=C(O)[C@]3(O)C(=O)C(C(N)=O)=C(O)[C@@H](N(C)C)[C@@H]3[C@@H](O)[C@@H]21`: 39.6%.

System in the next series: not listed separately
Description: Antioxidant activity assessed as radical scavenging activity incubated for 20 mins by DPPH assay based UV spectrophotometer analysis.
Conditions: not given
Type of series: functional.
`COc1ccc2cc3[n+](cc2c1O)CCc1cc2c(cc1-3)OCO2` [BERBERRUBINE CHLORIDE]: the EC50 was 87 µM.

The next series concerns the target T1, Prolyl endopeptidase (Homo sapiens, UniProt P48147).
T1 sequence (P48147 whole entry): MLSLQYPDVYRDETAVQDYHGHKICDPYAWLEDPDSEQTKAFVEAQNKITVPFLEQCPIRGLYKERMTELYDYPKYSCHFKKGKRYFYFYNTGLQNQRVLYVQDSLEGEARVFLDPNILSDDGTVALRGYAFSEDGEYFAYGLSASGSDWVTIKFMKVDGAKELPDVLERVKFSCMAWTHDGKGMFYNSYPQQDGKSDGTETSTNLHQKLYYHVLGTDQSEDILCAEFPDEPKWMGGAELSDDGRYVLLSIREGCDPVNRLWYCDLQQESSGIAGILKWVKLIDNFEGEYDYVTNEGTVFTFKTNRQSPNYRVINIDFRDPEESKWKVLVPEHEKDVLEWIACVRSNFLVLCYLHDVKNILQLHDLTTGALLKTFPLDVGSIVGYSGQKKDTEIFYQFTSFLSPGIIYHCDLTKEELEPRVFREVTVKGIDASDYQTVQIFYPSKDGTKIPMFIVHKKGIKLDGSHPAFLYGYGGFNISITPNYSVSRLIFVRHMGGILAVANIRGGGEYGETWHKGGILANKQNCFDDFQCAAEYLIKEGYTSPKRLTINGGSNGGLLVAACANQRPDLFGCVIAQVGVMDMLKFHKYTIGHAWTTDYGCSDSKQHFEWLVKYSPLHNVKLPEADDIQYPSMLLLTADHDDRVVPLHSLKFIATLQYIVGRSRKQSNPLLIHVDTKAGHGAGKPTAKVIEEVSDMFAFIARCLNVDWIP
Test: not given
Conditions: not given
`COc1ccc2cc3[n+](cc2c1OCc1ccc(Cl)c(Cl)c1)CCc1cc2c(cc1-3)OCO2` registered an IC50 of 52.7 µM.
On the same count and under the same terms, next, `COc1ccc(COc2c(OC)ccc3cc4[n+](cc23)CCc2cc3c(cc2-4)OCO3)cc1.[Br-]`: 40.5 µM; `COc1ccc2cc3[n+](cc2c1OCc1ccccc1C)CCc1cc2c(cc1-3)OCO2`: 71.1 µM; `COc1ccc2cc3[n+](cc2c1OCc1ccccc1)CCc1cc2c(cc1-3)OCO2.[Br-]`: 25.4 µM.
`COc1ccc2cc3[n+](cc2c1OCc1cc(C)cc(C)c1)CCc1cc2c(cc1-3)OCO2` registered an IC50 of 58.7 µM.
Take `COc1ccc2cc3[n+](cc2c1OCc1ccc(Br)cc1)CCc1cc2c(cc1-3)OCO2.[Br-]`: the IC50 turned out to be 19.4 µM.
The same measure, in the same setting: next, `COc1cccc(COc2c(OC)ccc3cc4[n+](cc23)CCc2cc3c(cc2-4)OCO3)c1`: 40.4 µM.
Still for that read-out and setting: as for `COc1ccc2cc3[n+](cc2c1OCc1cccc(Cl)c1)CCc1cc2c(cc1-3)OCO2`, the figure is 67 µM.

System in the next series: not listed separately
Kind of series: in vitro. The conditions noted are these: PAMPA, pH 7.4.
Description: Permeability of the compound at pH 7.4 measured after 6 hrs by PAMPA method
As a reminder, the Papp is the rate of passage across a membrane or cell layer, normalised by area and donor concentration. The low end stands for slow passage, the high end for fast passage. `Nc1c2c(nc3ccccc13)CCCC2` [TACRINE] came in with an apparent permeability coefficient (Papp) at 6 h of 6 ×10⁻⁶ cm/s.
Same read-out and setting: as for `COc1ccc(COc2c(OC)ccc3cc4[n+](cc23)CCc2cc3c(cc2-4)OCO3)cc1.[Br-]`, the figure is 4.8 ×10⁻⁶ cm/s.
The same measure, in the same setting: next, `COc1ccc2cc3[n+](cc2c1OC)CCc1cc2c(cc1-3)OCO2.[Cl-]` [BERBERINE CHLORIDE]: 0.2 ×10⁻⁶ cm/s; `COc1ccc2cc3[n+](cc2c1OCc1ccccc1)CCc1cc2c(cc1-3)OCO2.[Br-]`: 0.4 ×10⁻⁶ cm/s; `COc1ccc2cc3[n+](cc2c1OCc1ccc(Br)cc1)CCc1cc2c(cc1-3)OCO2.[Br-]`: 0.6 ×10⁻⁶ cm/s.
The same measure, in the same setting: as for `CO/N=C(\C(=O)N[C@@H]1C(=O)N2C(C(=O)O)=C(COC(N)=O)CS[C@H]12)c1ccco1` [CEFUROXIME], the figure is 0.3 ×10⁻⁶ cm/s.
